Key:
Experiment in all cases: relative viability (nuclei count vs DMSO), 5 days (fraction); higher = more cells survive
Afatinib + Bortezomib = compound: CN(C)C/C=C/C(=O)Nc1cc2c(Nc3ccc(F)c(Cl)c3)ncnc2cc1O[C@H]1CCOC1 [Afatinib] + CC(C)C[C@H](NC(=O)[C@H](Cc1ccccc1)NC(=O)c1cnccn1)B(O)O [Bortezomib] (partner 0.002 µM)
Summary of the method: (§1)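 For relative viability, nuclei counts in treated wells were divided by those in vehicle wells. Lung cancer cell lines had been pin-tool dosed in 1536-well plates the day after seeding and cultured for 5 days, then fixed and stained in one step (final 0.05% Triton X-100, 1% formaldehyde, 1 ug/ml Hoechst) and imaged at 4×. Doses were one drug alone or a fixed anchor-drug dose plus five library-drug doses (not always all listed) in √10 steps, and values are duplicate-plate medians.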

Afatinib + Lapatinib = compound: CN(C)C/C=C/C(=O)Nc1cc2c(Nc3ccc(F)c(Cl)c3)ncnc2cc1O[C@H]1CCOC1 [Afatinib] + CS(=O)(=O)CCNCc1ccc(-c2ccc3ncnc(Nc4ccc(OCc5cccc(F)c5)c(Cl)c4)c3c2)o1 [Lapatinib] (partner 2 µM)
Summary of the method: as §1

Afatinib + AZD7762 = compound: CN(C)C/C=C/C(=O)Nc1cc2c(Nc3ccc(F)c(Cl)c3)ncnc2cc1O[C@H]1CCOC1 [Afatinib] + NC(=O)Nc1cc(-c2cccc(F)c2)sc1C(=O)N[C@H]1CCCNC1 [AZD7762] (partner 0.2 µM)
Summary of the method: as §1

Afatinib + Decitabine = compound: CN(C)C/C=C/C(=O)Nc1cc2c(Nc3ccc(F)c(Cl)c3)ncnc2cc1O[C@H]1CCOC1 [Afatinib] + Nc1ncn([C@H]2C[C@H](O)[C@@H](CO)O2)c(=O)n1 [Decitabine] (partner 2 µM)
Summary of the method: as §1

| Cell Line | relative viability (Afatinib + Bortezomib; first compound 0.005 µM) | relative viability (Afatinib + Bortezomib; first compound 0.01581 µM) | relative viability (Afatinib + Bortezomib; first compound 0.05 µM) | relative viability (Afatinib + Bortezomib; first compound 0.1581 µM) | relative viability (Afatinib + Bortezomib; first compound 0.5 µM) | relative viability (Afatinib + Lapatinib; first compound 0.005 µM) | relative viability (Afatinib + Lapatinib; first compound 0.01581 µM) | relative viability (Afatinib + Lapatinib; first compound 0.05 µM) | relative viability (Afatinib + Lapatinib; first compound 0.1581 µM) | relative viability (Afatinib + Lapatinib; first compound 0.5 µM) | relative viability (Afatinib + AZD7762; first compound 0.005 µM) | relative viability (Afatinib + AZD7762; first compound 0.01581 µM) | relative viability (Afatinib + AZD7762; first compound 0.05 µM) | relative viability (Afatinib + AZD7762; first compound 0.1581 µM) | relative viability (Afatinib + AZD7762; first compound 0.5 µM) | relative viability (Afatinib + Decitabine; first compound 0.005 µM) | relative viability (Afatinib + Decitabine; first compound 0.01581 µM) | relative viability (Afatinib + Decitabine; first compound 0.05 µM) | relative viability (Afatinib + Decitabine; first compound 0.1581 µM) | relative viability (Afatinib + Decitabine; first compound 0.5 µM) |
| --- | --- | --- | --- | --- | --- | --- | --- | --- | --- | --- | --- | --- | --- | --- | --- | --- | --- | --- | --- | --- |
| NCI-H1703 | 0.414 | 0.299 | 0.343 | 0.288 | 0.281 | 1.76 | 1.02 | 1.08 | 0.921 | 0.753 | 0.13 | 0.141 | 0.119 | 0.121 | 0.109 | – | – | – | – | – |
| NCI-H1793 | – | – | – | – | – | 0.679 | 0.733 | 0.962 | 0.995 | 0.467 | 0.193 | 0.304 | 0.451 | 0.268 | 0.231 | 0.43 | 0.344 | 0.329 | 0.27 | 0.417 |
| NCI-H1944 | – | – | – | – | – | 0.884 | 0.795 | 0.691 | 0.799 | 0.858 | 0.297 | 0.496 | 0.413 | 0.343 | 0.404 | 0.423 | 0.403 | 0.419 | 0.343 | 0.344 |
| NCI-H2009 | 1.09 | 1.01 | 0.991 | 1 | 1.03 | 0.964 | 0.934 | 1.07 | 0.995 | 1.01 | – | – | – | – | – | 0.398 | 0.383 | 0.357 | 0.366 | 0.358 |
| NCI-H2023 | 0.954 | 0.884 | 0.984 | 0.899 | 1.14 | 0.744 | 0.853 | 0.896 | 0.809 | 0.964 | – | – | – | – | – | 0.234 | 0.197 | 0.211 | 0.2 | 0.234 |
| NCI-H2170 | – | – | – | – | – | 0.297 | 0.283 | 0.268 | 0.269 | 0.315 | 0.66 | 0.55 | 0.245 | 0.144 | 0.151 | 0.459 | 0.469 | 0.405 | 0.176 | 0.2 |
| NCI-H2228 | 1.19 | 0.812 | 0.984 | – | 0.901 | 1.29 | 1.01 | 0.958 | – | 1.03 | – | – | – | – | – | – | – | – | – | – |
| NCI-H2342 | – | – | – | – | – | – | – | – | – | – | 0.562 | 0.488 | 0.477 | 0.434 | 0.474 | 0.706 | 0.698 | 0.718 | 0.569 | 0.573 |
| SK-LU-1 | 1.07 | 1.28 | 1.33 | 1.28 | 1.09 | 1.33 | 0.89 | 0.803 | 0.941 | 0.915 | – | – | – | – | – | 0.641 | 0.674 | 0.661 | 0.621 | 0.619 |
| SK-MES-1 | – | – | – | – | – | 0.423 | 0.393 | 0.459 | 0.444 | 0.467 | – | – | – | – | – | 0.27 | 0.322 | 0.309 | 0.312 | 0.316 |
| SW 1573 | 1.12 | 1.07 | 1.05 | 0.98 | 1.1 | 1.03 | 1.09 | 1.14 | 1.07 | 1.27 | – | – | – | – | – | 0.434 | 0.422 | 0.542 | 0.497 | 0.528 |
| UMC-11 | 0.998 | 0.735 | 0.667 | 0.669 | 0.777 | 1.07 | 0.919 | 0.846 | 0.802 | 1 | – | – | – | – | – | 0.664 | 0.602 | 0.584 | 0.554 | 0.63 |
